Test results taken from patent US20230265151A1, “GIP/GLP1 CO-AGONIST COMPOUNDS” (priority 2020, published 2023).
Like-named read-outs stand apart in the source and are kept apart here.

Key:
[1] = molecular target: T1, human GLP-1 receptor (hGLP-1R) (Homo sapiens, UniProt P43220); experiment: [125I]-GLP-1 binding, SPA with membranes of HEK293 cells expressing hGLP-1R
T1 construct: expressed in transfected cells; crude membranes

[2] = molecular target: T2, hGIPR (Homo sapiens, UniProt P48546); experiment: Functional cAMP formation (HTRF) in HEK-293 clonal cells expressing hGIPR, 0.1% bovine casein, without or with 1.0% human serum albumin; assay type: cell-based; conditions: for Emax: percent of maximal response to GIP(1-42)NH2; for EC50: cAMP
T2 construct: expressed in transfected cells
T2 sequence (P48546 22-466): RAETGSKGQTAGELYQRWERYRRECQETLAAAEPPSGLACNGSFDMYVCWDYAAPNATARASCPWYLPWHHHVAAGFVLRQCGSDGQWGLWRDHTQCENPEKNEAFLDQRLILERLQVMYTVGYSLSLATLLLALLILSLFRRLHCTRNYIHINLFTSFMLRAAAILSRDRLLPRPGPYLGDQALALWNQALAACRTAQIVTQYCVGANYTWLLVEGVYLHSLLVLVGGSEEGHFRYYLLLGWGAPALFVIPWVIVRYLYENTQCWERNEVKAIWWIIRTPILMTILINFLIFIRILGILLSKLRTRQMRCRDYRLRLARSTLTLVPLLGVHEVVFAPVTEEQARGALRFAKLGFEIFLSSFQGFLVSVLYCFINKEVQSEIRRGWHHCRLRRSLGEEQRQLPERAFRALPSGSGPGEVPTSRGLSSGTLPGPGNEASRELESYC
Outline: (§1)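 Cells were stimulated with peptide for 30 min at 37° C, then intracellular cAMP was measured by competitive HTRF (665/620 nm ratio) and converted to nM using a cAMP standard curve. Relative EC50 and Emax came from four-parameter logistic fits of percent maximal response against peptide concentration.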

[3] = molecular target: hGLP-1R (Homo sapiens, UniProt P43220); experiment: Functional cAMP formation (HTRF) in HEK-293 clonal cells expressing hGLP-1R, 0.1% bovine casein, without or with 1.0% human serum albumin; assay type: cell-based; parameters: expressed in transfected cells; conditions: for Emax: percent of maximal response to GLP-1(7-36)NH2; for EC50: cAMP
Chain of hGLP-1R (P43220 24-463): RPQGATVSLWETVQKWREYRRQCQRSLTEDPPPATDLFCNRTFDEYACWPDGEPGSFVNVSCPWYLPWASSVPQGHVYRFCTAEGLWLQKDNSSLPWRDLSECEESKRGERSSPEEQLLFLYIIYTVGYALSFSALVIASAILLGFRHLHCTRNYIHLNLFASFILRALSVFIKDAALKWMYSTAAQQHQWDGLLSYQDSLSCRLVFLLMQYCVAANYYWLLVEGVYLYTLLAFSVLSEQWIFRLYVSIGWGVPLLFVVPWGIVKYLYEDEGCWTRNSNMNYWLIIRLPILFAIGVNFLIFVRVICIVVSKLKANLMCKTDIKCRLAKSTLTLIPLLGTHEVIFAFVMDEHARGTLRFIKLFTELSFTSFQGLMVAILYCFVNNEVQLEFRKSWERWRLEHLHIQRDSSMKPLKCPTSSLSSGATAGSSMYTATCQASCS
Outline: as §1

[4] = molecular target: T3, hGCGR (Homo sapiens, UniProt P47871); experiment: Functional cAMP formation (HTRF) in HEK-293 clonal cells expressing hGCGR, 0.1% bovine casein, without or with 1.0% human serum albumin; assay type: cell-based; conditions: cAMP, 37° C.
T3 construct: expressed in transfected cells
T3 sequence (P47871 26-477): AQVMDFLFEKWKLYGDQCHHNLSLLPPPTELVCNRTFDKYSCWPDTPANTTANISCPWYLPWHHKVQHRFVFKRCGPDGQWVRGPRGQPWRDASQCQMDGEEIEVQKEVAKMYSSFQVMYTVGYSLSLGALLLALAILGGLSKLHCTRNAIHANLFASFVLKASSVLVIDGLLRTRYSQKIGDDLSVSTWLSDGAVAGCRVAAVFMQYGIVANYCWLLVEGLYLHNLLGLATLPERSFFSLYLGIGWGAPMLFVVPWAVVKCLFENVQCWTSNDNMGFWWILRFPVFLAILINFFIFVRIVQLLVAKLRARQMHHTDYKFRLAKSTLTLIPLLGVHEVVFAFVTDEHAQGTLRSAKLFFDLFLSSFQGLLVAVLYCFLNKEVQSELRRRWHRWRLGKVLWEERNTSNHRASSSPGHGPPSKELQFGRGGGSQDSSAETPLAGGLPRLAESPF
Outline: as §1

[5] = human GLP-1R, geometric mean (SEM, n), read-out: Binding Affinity Ki, nM (SEM, n) hGLP-1R
[6] = HEK293, cAMP, 37° C., 0.1% bovine casein and 1.0% human serum albumin, read-out: hGIPR Emax, % ± SEM
[7] = 37° C., 0.1% bovine casein (no human serum albumin), geometric mean, read-out: hGIPR EC50, nM (SEM, n)
[8] = 37° C., 0.1% bovine casein (no human serum albumin), geometric mean, read-out: hGLP-1R EC50, nM (SEM, n)
[9] = 0.1% bovine casein (no human serum albumin), geometric mean, read-out: hGCGR EC50, nM (SEM, n)
[10] = 0.1% bovine casein and 1.0% human serum albumin, geometric mean (SEM, n), read-out: hGCGR EC50, nM (SEM, n)
[11] = HEK293, cAMP, 37° C., 0.1% bovine casein and 1.0% human serum albumin, read-out: hGLP-1R Emax, % ± SEM
[12] = HEK293, cAMP, 37° C., 0.1% bovine casein, arithmetic mean, read-out: hGLP-1R Emax, % ± SEM

T1 sequence (P43220 24-463): as the sequence (P43220 24-463) above

Question: How did the Ki [1] turn out when `CC[C@H](C)[C@H](NC(=O)[C@H](CC(C)C)NC(=O)[C@](C)(Cc1ccc(O)cc1)NC(=O)[C@@H](CCC(=O)O)NC(=O)[C@@H](NC(=O)[C@H](Cc1ccccc1)NC(=O)[C@H](CCC(=O)O)NC(=O)C(C)(C)NC(=O)[C@H](CCC(N)=O)NC(=O)[C@H](C)NC(=O)[C@H](CCCCNC(=O)COCCOCCNC(=O)CC[C@H](NC(=O)CCCCCCCCCOc1ccc(C(=O)O)cc1)C(=O)O)NC(=O)[C@H](CCCN)NC(=O)[C@H](CC(=O)O)NC(=O)[C@H](CC(C)C)NC(=O)[C@](C)(CC(C)C)NC(=O)[C@@H](NC(=O)C(C)(C)NC(=O)[C@H](Cc1ccncc1)NC(=O)[C@H](CC(=O)O)NC(=O)[C@H](CO)NC(=O)[C@@H](NC(=O)[C@](C)(Cc1ccccc1F)NC(=O)[C@@H](NC(=O)CNC(=O)[C@H](CCC(=O)O)NC(=O)C(C)(C)NC(=O)[C@@H](N)Cc1ccc(O)cc1)[C@@H](C)O)[C@@H](C)O)[C@@H](C)CC)[C@@H](C)CC)C(=O)N[C@@H](CCCCNC(=O)COCCOCCNC(=O)CC[C@H](NC(=O)CCCCCCCCCOc1ccc(C(=O)O)cc1)C(=O)O)C(=O)NCC(=O)NCC(=O)N1CCC[C@H]1C(=O)N[C@@H](CO)C(=O)N[C@@H](CO)C(=O)NCC(=O)N[C@@H](C)C(=O)N1CCC[C@H]1C(=O)N1CCC[C@H]1C(=O)N1CCC[C@H]1C(=O)N[C@@H](CO)C(N)=O` [Example 361] was run?
Answer: 1.22 nM

Question: And the Emax ([2]; HEK293, read-out: hGIPR Emax, % ± SEM, cAMP, 37° C., 0.1% bovine casein and 1.0% human serum albumin)?
Answer: 88.8%

Question: What about the EC50 ([2]; hGIPR EC50, nM (SEM, n), 37° C., 0.1% bovine casein (no human serum albumin), geometric mean) of the same molecule?
Answer: 0.0121 nM

Question: What about the EC50 ([2]; hGIPR EC50, nM (SEM, n), 37° C., 0.1% bovine casein and 1.0% human serum albumin, geometric mean (SEM, n)) of the same molecule?
Answer: 1.44 nM

Question: And the Emax ([3]; HEK293, read-out: hGLP-1R Emax, % ± SEM, cAMP, 37° C., 0.1% bovine casein and 1.0% human serum albumin)?
Answer: 98.8%

Question: What about the Emax ([3]; HEK293, read-out: hGLP-1R Emax, % ± SEM, cAMP, 37° C., 0.1% bovine casein, arithmetic mean) of the same molecule?
Answer: 98.2%

Question: What about the EC50 ([3]; hGLP-1R EC50, nM (SEM, n), 37° C., 0.1% bovine casein (no human serum albumin), geometric mean) of the same molecule?
Answer: 0.58 nM

Question: What about the EC50 ([4]; hGCGR EC50, nM (SEM, n), 0.1% bovine casein (no human serum albumin), geometric mean) of the same molecule?
Answer: > 9950 nM

Question: What about the EC50 ([4]; hGCGR EC50, nM (SEM, n), 0.1% bovine casein and 1.0% human serum albumin, geometric mean (SEM, n)) of the same molecule?
Answer: > 9950 nM

Question: For `CCCCCCCCCCCC(=O)N[C@@H](CCC(=O)NCCOCCOCC(=O)NCCOCCOCC(=O)NCCOCCOCC(=O)NCCCC[C@H](NC(=O)[C@H](CCCN)NC(=O)[C@H](CC(=O)O)NC(=O)[C@H](CC(C)C)NC(=O)[C@](C)(CC(C)C)NC(=O)[C@@H](NC(=O)C(C)(C)NC(=O)[C@H](Cc1ccncc1)NC(=O)[C@H](CC(=O)O)NC(=O)[C@H](CO)NC(=O)[C@@H](NC(=O)[C@](C)(Cc1ccccc1F)NC(=O)[C@@H](NC(=O)CNC(=O)[C@H](CCC(=O)O)NC(=O)C(C)(C)NC(=O)[C@@H](N)Cc1ccc(O)cc1)[C@@H](C)O)[C@@H](C)O)[C@@H](C)CC)C(=O)N[C@@H](C)C(=O)N[C@@H](CCC(N)=O)C(=O)NC(C)(C)C(=O)N[C@@H](CCCN)C(=O)N[C@@H](Cc1ccccc1)C(=O)N[C@H](C(=O)N[C@H](CCC(=O)O)C(=O)N[C@@](C)(Cc1ccc(O)cc1)C(=O)N[C@@H](CC(C)C)C(=O)N[C@H](C(=O)N[C@@H](CCCCNC(=O)COCCOCCNC(=O)COCCOCCNC(=O)COCCOCCNC(=O)CC[C@H](NC(=O)CCCCCCCCCCC)C(=O)O)C(=O)NCC(=O)NCC(=O)N1CCC[C@H]1C(=O)N[C@@H](CO)C(=O)N[C@@H](CO)C(=O)NCC(=O)N[C@@H](C)C(=O)N1CCC[C@H]1C(=O)N1CCC[C@H]1C(=O)N1CCC[C@H]1C(=O)N[C@@H](CO)C(N)=O)[C@@H](C)CC)[C@@H](C)CC)C(=O)O` [Example 434], which Ki [1, 5] is on record?
Answer: 0.15 nM

Question: And the Emax [2, 6]?
Answer: 97.5%

Question: And the Emax ([2]; HEK293, cAMP, 37° C., 0.1% bovine casein, arithmetic mean, read-out: hGIPR Emax, % ± SEM)?
Answer: 98.3%

Question: And the EC50 [2, 7]?
Answer: 0.00704 nM

Question: What about the EC50 [3, 8] of the same molecule?
Answer: 0.0837 nM

Question: What about the EC50 ([3]; 37° C., 0.1% bovine casein and 1.0% human serum albumin, geometric mean (SEM, n), read-out: hGLP-1R EC50, nM (SEM, n)) of the same molecule?
Answer: 1.73 nM

Question: And the EC50 [4, 9]?
Answer: > 9950 nM

Question: And the EC50 [4, 10]?
Answer: > 9950 nM

Question: How did the Ki [1, 5] turn out when `CCCCCCCCCCCC(=O)N[C@@H](CCC(=O)NCCOCCOCC(=O)NCCOCCOCC(=O)NCCOCCOCC(=O)NCCCC[C@H](NC(=O)[C@H](CO)NC(=O)[C@@H]1CCCN1C(=O)[C@@H]1CCCN1C(=O)[C@@H]1CCCN1C(=O)[C@H](C)NC(=O)CNC(=O)[C@H](CO)NC(=O)[C@H](CO)NC(=O)[C@@H]1CCCN1C(=O)CNC(=O)CNC(=O)[C@H](CCC(=O)O)NC(=O)[C@@H](NC(=O)[C@H](CC(C)C)NC(=O)[C@](C)(Cc1ccc(O)cc1)NC(=O)[C@@H](CCC(=O)O)NC(=O)[C@@H](NC(=O)[C@H](Cc1ccccc1)NC(=O)[C@H](CCCN)NC(=O)C(C)(C)NC(=O)[C@H](CCC(N)=O)NC(=O)[C@H](C)NC(=O)[C@H](CCCCNC(=O)COCCOCCNC(=O)COCCOCCNC(=O)COCCOCCNC(=O)CC[C@H](NC(=O)CCCCCCCCCCC)C(=O)O)NC(=O)[C@H](CCCN)NC(=O)[C@H](CC(=O)O)NC(=O)[C@H](CC(C)C)NC(=O)[C@](C)(CC(C)C)NC(=O)[C@@H](NC(=O)C(C)(C)NC(=O)[C@H](Cc1ccncc1)NC(=O)[C@H](CC(=O)O)NC(=O)[C@H](CO)NC(=O)[C@@H](NC(=O)[C@](C)(Cc1ccccc1F)NC(=O)[C@@H](NC(=O)CNC(=O)[C@H](CCC(=O)O)NC(=O)C(C)(C)NC(=O)[C@@H](N)Cc1ccc(O)cc1)[C@@H](C)O)[C@@H](C)O)[C@@H](C)CC)[C@@H](C)CC)[C@@H](C)CC)C(N)=O)C(=O)O` [Example 435] was run?
Answer: 0.122 nM

Question: What about the Emax [2, 6] of the same molecule?
Answer: 98.7%

Question: What about the EC50 [2, 7] of the same molecule?
Answer: 0.00517 nM

Question: What about the Emax [3, 11] of the same molecule?
Answer: 97.8%

Question: What about the Emax [3, 12] of the same molecule?
Answer: 111%

Question: What about the EC50 [3, 8] of the same molecule?
Answer: 0.0527 nM

Question: And the EC50 [4, 9]?
Answer: > 9950 nM

Question: What about the EC50 [4, 10] of the same molecule?
Answer: > 9950 nM

Question: Which Ki [1, 5] does the source give for `CCCCCCCCCCCC(=O)N[C@@H](CCC(=O)NCCOCCOCC(=O)NCCOCCOCC(=O)NCCOCCOCC(=O)NCCCC[C@H](NC(=O)[C@H](CCCN)NC(=O)[C@H](CC(=O)O)NC(=O)[C@H](CC(C)C)NC(=O)[C@](C)(CC(C)C)NC(=O)[C@@H](NC(=O)C(C)(C)NC(=O)[C@H](CCCCNC(=O)COCCOCCNC(=O)COCCOCCNC(=O)COCCOCCNC(=O)CC[C@H](NC(=O)CCCCCCCCCCC)C(=O)O)NC(=O)[C@H](CC(=O)O)NC(=O)[C@H](CO)NC(=O)[C@@H](NC(=O)[C@](C)(Cc1ccccc1F)NC(=O)[C@@H](NC(=O)CNC(=O)[C@H](CCC(=O)O)NC(=O)C(C)(C)NC(=O)[C@@H](N)Cc1ccc(O)cc1)[C@@H](C)O)[C@@H](C)O)[C@@H](C)CC)C(=O)N[C@@H](C)C(=O)N[C@@H](CCC(N)=O)C(=O)NC(C)(C)C(=O)N[C@@H](CCC(=O)O)C(=O)N[C@@](C)(Cc1ccccc1)C(=O)N[C@H](C(=O)N[C@H](CCC(=O)O)C(=O)N[C@@](C)(Cc1ccc(O)cc1)C(=O)N[C@@H](CC(C)C)C(=O)N[C@H](C(=O)N[C@@H](CCC(=O)O)C(=O)NCC(=O)NCC(=O)N1CCC[C@H]1C(=O)N[C@@H](CO)C(=O)N[C@@H](CO)C(=O)NCC(=O)N[C@@H](C)C(=O)N1CCC[C@H]1C(=O)N1CCC[C@H]1C(=O)N1CCC[C@H]1C(=O)N[C@@H](CO)C(N)=O)[C@@H](C)CC)[C@@H](C)CC)C(=O)O` [Example 436] here?
Answer: 0.412 nM

Question: What about the Emax [2, 6] of the same molecule?
Answer: 96%

Question: What about the EC50 [2, 7] of the same molecule?
Answer: 0.00714 nM

Question: What about the Emax [3, 11] of the same molecule?
Answer: 100%

Question: What about the Emax [3, 12] of the same molecule?
Answer: 98.9%

Question: What about the EC50 [3, 8] of the same molecule?
Answer: 0.102 nM

Question: What about the EC50 [4, 9] of the same molecule?
Answer: > 9950 nM

Question: And the EC50 [4, 10]?
Answer: > 9950 nM
